Like-named read-outs stand apart in the source and are kept apart here.
Legend:
[1] = system: Mycosphaerella graminicola (Septoria tritici—SEPTTR); assay: In vitro fungal growth inhibition, Mycosphaerella graminicola (SEPTTR); type: cell-based; settings: for inhibition at 25 ppm: Zymoseptoria tritici, 25 ppm in growth medium, read-out: SEPTTR in vitro Growth Inhibition
[2] = system: Magnaporthe grisea (Pyricularia oryzae—PYRIOR); assay: microbe, parasite or virus in culture; type: cell-based; settings: for inhibition at 25 ppm: Pyricularia oryzae, read-out: PYRIOR in vitro Growth Inhibition
[3] = system: Leptosphaeria nodorum—LEPTNO; assay: Glume Blotch of Wheat, in vivo whole plant, 24 Hour Protectant; settings: 100 ppm spray, 24 hour protectant, wheat, control of fungal infection vs untreated plants; for pest or weed control at 100 ppm: Leptosphaeria, read-out: LEPTNO in vivo 1 Day Protectant
[4] = system: Puccinia recondita—PUCCRT; assay: Brown Rust of Wheat, in vivo whole plant, 24 Hour Protectant; settings: Puccinia; 100 ppm spray, 24 hour protectant, wheat; control of fungal infection vs untreated plants; read-out: PUCCRT in vivo 1 Day Protectant
[5] = system: Stagonospora nodorum (Leptosphaeria nodorum—LEPTNO); assay: In vitro fungal growth inhibition, Stagonospora nodorum (LEPTNO); type: cell-based; settings: for inhibition at 25 ppm: Leptosphaeria, 25 ppm in growth medium, read-out: LEPTNO in vitro Growth Inhibition
Ustilago maydis (USTIMA) = assay: microbe, parasite or virus in culture; type: cell-based; settings: for inhibition at 25 ppm: Mycosarcoma maydis, read-out: USTIMA in vitro Growth Inhibition
[6] = system: Phytophthora infestans (PHYTIN); assay: microbe, parasite or virus in culture; type: cell-based; settings: for inhibition at 25 ppm: Phytophthora infestans, read-out: PHYTIN in vitro Growth Inhibition
Erysiphe graminis—ERYSGT = assay: Powdery Mildew of Wheat, in vivo whole plant, 24 Hour Protectant; settings: for pest or weed control at 100 ppm: Erysiphe, 100 ppm spray, 24 hour protectant, wheat, read-out: ERYSGT in vivo 1 Day Protectant
[7] = system: Rhizoctonia solani (RHIZSO); assay: microbe, parasite or virus in culture; type: cell-based; settings: for inhibition at 25 ppm: Rhizoctonia solani, read-out: RHIZSO in vitro Growth Inhibition
[8] = system: Phytophthora infestans—PHYTIN; assay: whole plant or invertebrate; type: in vivo; settings: Phytophthora, in Solanum lycopersicum, 24 h, read-out: PHYTIN in vivo 1 Day Protectant
[9] = control of fungal infection vs untreated plants

Row | SMILES | inhibition at 25 ppm [1] [%] | inhibition at 25 ppm [2] [%] | pest or weed control at 100 ppm [3] [%] | pest or weed control at 100 ppm [4] [%] | inhibition at 25 ppm [5] [%] | inhibition at 25 ppm (Ustilago maydis (USTIMA)) [%] | inhibition at 25 ppm [6] [%] | pest or weed control at 100 ppm (Erysiphe graminis—ERYSGT; [9]) [%] | inhibition at 25 ppm [7] [%] | pest or weed control at 100 ppm [8] [%] | LEPTNO in vivo 1 Day Protectant [3] | SEPTTR in vitro Growth Inhibition [1] | PYRIOR in vitro Growth Inhibition [2] | LEPTNO in vitro Growth Inhibition [5] | USTIMA in vitro Growth Inhibition (Ustilago maydis (USTIMA)) | PHYTIN in vitro Growth Inhibition [6] | ERYSGT in vivo 1 Day Protectant (Erysiphe graminis—ERYSGT) | RHIZSO in vitro Growth Inhibition [7] | pest or weed control at 100 ppm (Erysiphe graminis—ERYSGT; % control of fungal infection vs untreated plants) [%]
1 | COc1ccnc(C(=O)NCC(C)(C)Sc2ncc(C(F)(F)F)cc2Cl)c1O [Compound 244] | > 80 | > 80 | 25 to 74 | < 25 | > 80 | < 80 | < 80 | < 25 | < 80 | < 25 | – | – | – | – | – | – | – | – | –
2 | COc1ccnc(C(=O)N[C@@H]2CC3CC2[C@@H](c2ccccc2)[C@@H]3C(=O)OC(C)C)c1O (some centres unmarked) [Compound 300] | < 80 | < 80 | 25 to 74 | < 25 | > 80 | < 80 | < 80 | < 25 | > 80 | < 25 | – | – | – | – | – | – | – | – | –
3 | COc1ccnc(C(=O)NC2CCC[C@H]3[C@H]4CC[C@H](C4)[C@@H]23)c1O (some centres unmarked) [Compound 291] | < 80 | < 80 | 25 to 74 | < 25 | > 80 | < 80 | < 80 | < 25 | > 80 | < 25 | – | – | – | – | – | – | – | – | –
4 | COc1ccnc(C(=O)N[C@@H]2CC3CC2[C@@H](C(=O)OCCc2ccccc2)[C@H]3C(=O)OCC(C)C)c1O (some centres unmarked) [Compound 301] | < 80 | > 80 | 25 to 74 | 25 to 74 | > 80 | < 80 | < 80 | < 25 | > 80 | < 25 | – | – | – | – | – | – | – | – | –
5 | COc1ccnc(C(=O)N[C@H]2CC3CC2C[C@@H]3COCc2cccc(C(F)(F)F)c2)c1O (some centres unmarked) [Compound 296] | < 80 | > 80 | 25 to 74 | < 25 | > 80 | < 80 | < 80 | < 25 | > 80 | < 25 | – | – | – | – | – | – | – | – | –
6 | COc1ccnc(C(=O)N[C@H]2CC[C@H]3C4CCC(CC4)[C@H]3C2=O)c1O [Compound 292] | < 80 | < 80 | – | 25 to 74 | > 80 | < 80 | < 80 | < 25 | < 80 | < 25 | + + | – | – | – | – | – | – | – | –
7 | COc1ccnc(C(=O)NC2CCC[C@H]3CC(CCC=C(C)C)=CC[C@@H]23)c1O (some centres unmarked) [Compound 286] | < 80 | < 80 | 25 to 74 | < 25 | > 80 | < 80 | < 80 | < 25 | > 80 | < 25 | – | – | – | – | – | – | – | – | –
8 | COCCC(=O)Oc1c(OC)ccnc1C(=O)Nc1ccc(C(=NOC)c2cccc(C(F)(F)F)c2)cc1 [Compound 708] | – | – | – | – | – | – | – | – | – | – | – | + (key: +: at least 80% growth inhibition; −: less than 80% growth inhibition) | − (key: +: at least 80% growth inhibition; −: less than 80% growth inhibition) | + (key: +: at least 80% growth inhibition; −: less than 80% growth inhibition) | − (key: +: at least 80% growth inhibition; −: less than 80% growth inhibition) | − (key: +: at least 80% growth inhibition; −: less than 80% growth inhibition) | + + | − (key: +: at least 80% growth inhibition; −: less than 80% growth inhibition) | –
9 | CON=C(c1ccc(NC(=O)c2nccc(OC)c2OC(C)=O)cc1)c1cccc(C(F)(F)F)c1 [Compound 707] | – | – | – | – | – | – | – | – | – | – | – | − (key: +: at least 80% growth inhibition; −: less than 80% growth inhibition) | + (key: +: at least 80% growth inhibition; −: less than 80% growth inhibition) | − (key: +: at least 80% growth inhibition; −: less than 80% growth inhibition) | − (key: +: at least 80% growth inhibition; −: less than 80% growth inhibition) | − (key: +: at least 80% growth inhibition; −: less than 80% growth inhibition) | + + | − (key: +: at least 80% growth inhibition; −: less than 80% growth inhibition) | –
10 | COc1ccnc(C(=O)N[C@H]2COC(=O)[C@H](Cc3ccccc3)[C@@H](OC(=O)C(C)C)[C@H](C)OC2=O)c1OC(=O)c1ccc(Cl)nc1 [Compound 669] | < 80 | < 80 | – | – | > 80 | < 80 | < 80 | – | < 80 | < 25 | – | – | – | – | – | – | – | – | < 25
11 | C=CCOC(=O)Oc1c(OC)ccnc1C(=O)N[C@H]1COC(=O)[C@H](Cc2ccccc2)[C@@H](OC(=O)C(C)C)[C@H](C)OC1=O [Compound 681] | < 80 | > 80 | – | – | > 80 | < 80 | < 80 | – | > 80 | – | – | – | – | – | – | – | – | – | –
12 | CCCSC(=O)Oc1c(OC)ccnc1C(=O)N[C@H]1COC(=O)[C@H](Cc2ccccc2)[C@@H](OC(=O)C(C)C)[C@H](C)OC1=O [Compound 699] | < 80 | > 80 | – | – | > 80 | < 80 | < 80 | – | < 80 | – | – | – | – | – | – | – | – | – | –
13 | COc1ccnc(C(=O)N[C@H]2COC(=O)[C@H](Cc3ccccc3)[C@@H](OC(=O)C(C)C)[C@H](C)OC2=O)c1OC(=O)c1ccc(F)cc1F [Compound 638] | < 80 | < 80 | – | – | > 80 | < 80 | < 80 | – | < 80 | – | – | – | – | – | – | – | – | – | –
14 | COc1ccnc(C(=O)NC(CC2CCCCC2)C(=O)OC2CCNC2)c1O (centres unmarked) [Compound 369] | < 80 | < 80 | – | – | < 80 | < 80 | < 80 | – | > 80 | – | – | – | – | – | – | – | – | – | –
15 | COc1ccnc(C(=O)N[C@H]2COC(=O)[C@H](Cc3ccccc3)[C@@H](OC(=O)C(C)C)[C@H](C)OC2=O)c1OC(=O)/C=C/c1ccccc1 [Compound 651] | < 80 | < 80 | – | – | > 80 | < 80 | < 80 | – | < 80 | – | – | – | – | – | – | – | – | – | –
16 | COc1ccnc(C(=O)NCCCCCCCCCCC(=O)Oc2cccc(NC(C)=O)c2)c1O [Compound 363] | < 80 | > 80 | – | – | < 80 | < 80 | < 80 | – | < 80 | – | – | – | – | – | – | – | – | – | –
